Source: patent publication US7473708B2, “Agents with leukotriene B4-like antiviral (enveloped RNA) activities” (priority 1996, dated 2009)

Assays:
EBV [1] = assay: Detection of Epstein-Barr Nuclear Antigen (EBNA) in EBV-infected PBMC (ACIF test); type: cell-based, human; settings: 100 nM analog, PBMC, six days, EBNA by ACIF
Procedure: After ten days of culture, cells were harvested for determination of the presence of Epstein-Barr Nuclear Antigen (EBNA), a consequence of EBV infection. Preparation of cell smears, fixation and detection of EBNA by the anti-complement immunofluorescence (ACIF) test were carried out as described by Reedman B. M. and Klein G. (Int. J. Cancer, 1973, 11:499). Smears were prepared by spreading 50 μl of a concentrated suspension of washed cells (2×10^6/ml) on clean slides, air dried and fixed in cold acetone (−20° C.) during 10 minutes. Human serum (50 μl) from EBV seropositive donor was used as a source of complement. Slides were incubated at room temperature in a humid chamber during 45 minutes. Slides were then washed three times in phosphate buffer saline (PBS) and stained with 50 μl of fluorescein-5-isothiocyanate (FITC “Isomer I”)-conjugated goat IgG fraction anti-human complement C3 (Cappel Research Products, Durham, N.C.) during 60 minutes at room temperature in a humid chamber. Slides were washed in PBS (3 times), mounted in PBS:glycerol 1:1 and examined. Raji and U937 cells were used as positive and negative controls, respectively. The percentage of EBNA-positive cells was decreased by more than 55% with 30 nM LTB4, and by more than 70% with 100 nM LTB4 (FIG. 2). The results illustrated in FIG. 2 are representative of six (6) other experiments.
(§1) PBMC were infected with EBV and HSV-1 and treated or not with 100 nM of analogs of LTB4 such as 20-OH-LTB4, LTA3 methyl ester, 12(R)-HETE and 5(S), 15(S)-diHETE. After six days of culture, the presence of EBNA antigen (a consequence of EBV infection) was evaluated by the ACIF test, as described in Example I. Similarly, the presence of HSV-1 antigen in PBMC was evaluated by immunofluorescence using an antiserum obtained from a chronically infected donor as described above in section entitled “Detection of Specific HSV-1 Antigen”. […] The results illustrated in Table 1 are representative of three other experiments.

HSV-1 (strain McIntyre) = assay: Detection of specific HSV-1 antigen in HSV-1-infected PBMC (immunofluorescence); type: cell-based, human; settings: 100 nM analog, six days, antiserum immunofluorescence
Procedure: Synthesis of the viral antigen was inhibited by 60% in the presence of 100 nM LTB4 (FIG. 4). The results illustrated in FIG. 4 are representative of five (5) other experiments.
as §1

EBV [2] = settings: in vitro, read-out: IC50, viral replication; cited from earlier work
HSV = settings: in vitro, read-out: IC50, viral replication; cited from earlier work

SMILES | EBV infection, percentage of inhibition compared to infected PBMC cultured in the absence of analogs (EBV [1]) [%] | HSV-1 infection, percentage of inhibition compared to infected PBMC cultured in the absence of analogs (HSV-1 (strain McIntyre)) [%] | IC50 (EBV [2]) [nM] | IC50 (HSV) [nM]
CCCCC[C@H](O)/C=C/C=C\C/C=C\C=C\[C@@H](O)CCCC(=O)O [5(S),15(S)-diHETE, 5(S),15(S)-dihydroxy-6,8,11,13-(E,Z,Z,E)-eicosatetrae-noic acid] | 50 | – | – | –
CCCCC/C=C\C[C@@H](O)/C=C/C=C\C/C=C\CCCC(=O)O [12(R)-HETE, 12(R)-hydroxy-5,8,10,14(Z,Z,E,Z)-eicosatetraenoic acid] | 65 | 70 | – | –
O=C(O)CCC[C@H](O)\C=C/C=C/C=C/[C@H](O)C/C=C\CCCCCO [20-OH-LTB4, 20-hydroxy-LTB4] | – | 74 | – | –
CCCCCCCC\C=C/C=C/C=C/[C@@H]1O[C@H]1CCCC(=O)OC [LTA3 methyl ester, 14,15-dihydro-LTA4 methyl ester] | 65 | 60 | – | –
Nc1nc(O)c2ncn(COC(CO)CO)c2n1 [ganciclovir] | – | – | 1000 | 2400
